Measured values taken from ChEMBL document CHEMBL1201862, “PubChem BioAssay data set” (2004).
Calls of active or inactive are those of the source.

Key:
[1] = target: T1, Ubiquitin-conjugating enzyme E2 N (Homo sapiens, UniProt P61088); assay type: functional;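 further: Dose-response confirmation in a TR-FRET assay detecting UBC13-driven polyubiquitin chain formation, inhibition measured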
T1 sequence (P61088 whole entry): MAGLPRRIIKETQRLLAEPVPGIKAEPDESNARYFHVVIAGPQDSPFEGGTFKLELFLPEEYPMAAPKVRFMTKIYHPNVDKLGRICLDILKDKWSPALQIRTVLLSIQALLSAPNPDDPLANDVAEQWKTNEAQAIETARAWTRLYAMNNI

[2] = target: 26S proteasome non-ATPase regulatory subunit 14 (Homo sapiens, UniProt O00487); experiment: inhibition of proteasome subunit RPN11 – biochemical, fluorescence polarization, uHTS hits, confirmation (AID 602368); assay type: functional
Sequence of 26S proteasome non-ATPase regulatory subunit 14 (O00487 whole entry): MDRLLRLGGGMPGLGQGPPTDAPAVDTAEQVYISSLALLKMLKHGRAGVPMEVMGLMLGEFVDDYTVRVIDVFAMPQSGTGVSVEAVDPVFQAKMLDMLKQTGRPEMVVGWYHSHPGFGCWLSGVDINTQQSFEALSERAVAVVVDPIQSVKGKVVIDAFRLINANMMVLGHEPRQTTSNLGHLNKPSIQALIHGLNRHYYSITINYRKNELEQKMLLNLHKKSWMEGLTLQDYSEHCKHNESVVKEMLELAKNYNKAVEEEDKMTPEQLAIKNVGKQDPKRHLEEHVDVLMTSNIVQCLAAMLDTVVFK

[3] = target: 72 kDa type IV collagenase (Homo sapiens, UniProt P08253); experiment: Dose Response validation of uHTS RPN11 inhibitor hits using a MMP-2 Fluorescence assay.; assay type: functional
Prothrombin = Prothrombin (Bos taurus, UniProt P00735); experiment: thrombin protease inhibitors – biochemical, fluorescence polarization, uHTS hits, dose response (AID 602369); assay type: functional
[4] = target: Benomyl/methotrexate resistance protein (Candida albicans, UniProt P28873); experiment: Candida albicans Mdr1 pump inhibition curves – singleplex, Cherry Pick1 hits, dose response (AID 588608); assay type: functional
[5] = target: Multidrug resistance protein CDR1 (Candida albicans, UniProt P43071); experiment: inhibition of Nile Red efflux via Candida CDR1 – S. cerevisiae AD1-8u, singleplex, Cherry Pick1 hits, dose response (AID 588606); assay type: functional
[6] = Trypanosoma cruzi growth suppression in host cells – NIH3T3 host cells, beta-gal luminescence, confirmation (AID 2044); assay type: functional, cell-based;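 further: intracellular parasites grown in NIH/3T3 mouse fibroblasts as host cells; luminescent beta-galactosidase reporter signal from transgenic T. cruzi replicating inside host cells; inhibitors lower the luminescence signal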
[7] = NIH3T3 cell viability loss – ATP luminescence, mouse fibroblasts, counter-screen, dose response (AID 2010); assay type: functional, cell-based;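 further: cells exposed to compound for about 90 hours before reading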
[8] = HEK-293T cell viability reduction – luminescence, B-cell screen hits, cytotoxicity control for BCR NF-kB inhibitor project, dose response (AID 489021); assay type: functional, cell-based;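 further: HEK-293T cells carrying an NF-kB luciferase reporter; cells exposed to compound for about 14 hours before viability readout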
INS1 [9] = experiment: INS-1E survival protection against cytokine death – cell-based, luminescence, retest, dose response (AID 449756); assay type: functional; conditions: Rattus norvegicus;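 further: cell death triggered by IL-1 beta plus TNF-alpha plus IFN-gamma mixture; protective hits raise ATP signal compared with cytokine alone wells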
[10] = target: T2, High affinity choline transporter 1 (Homo sapiens, UniProt Q9GZV3); experiment: human choline transporter potentiators, potency – cell-based, 10-point CRC, membrane potential dye, dose response (AID 602376); assay type: functional
T2 sequence (Q9GZV3 whole entry): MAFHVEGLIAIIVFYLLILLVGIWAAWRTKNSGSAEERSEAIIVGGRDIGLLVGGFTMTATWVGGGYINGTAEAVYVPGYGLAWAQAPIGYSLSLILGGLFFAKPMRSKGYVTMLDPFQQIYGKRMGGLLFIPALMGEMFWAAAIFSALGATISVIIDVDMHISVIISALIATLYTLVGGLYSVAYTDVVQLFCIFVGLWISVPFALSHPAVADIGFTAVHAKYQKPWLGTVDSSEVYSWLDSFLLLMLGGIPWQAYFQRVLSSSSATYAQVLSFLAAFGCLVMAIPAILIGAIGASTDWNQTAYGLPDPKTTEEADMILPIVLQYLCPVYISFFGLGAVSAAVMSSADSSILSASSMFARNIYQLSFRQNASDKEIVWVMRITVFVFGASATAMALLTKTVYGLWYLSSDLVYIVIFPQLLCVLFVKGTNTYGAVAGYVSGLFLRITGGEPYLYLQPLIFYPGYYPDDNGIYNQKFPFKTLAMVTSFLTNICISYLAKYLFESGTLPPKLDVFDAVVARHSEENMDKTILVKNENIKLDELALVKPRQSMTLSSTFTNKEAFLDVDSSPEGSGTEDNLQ

Vero = experiment: inhibition of WNV-induced cytopathic effect – cell-based, CPE readout (AID 1621); assay type: functional; conditions: Chlorocebus sabaeus
[11] = target: T3, Protein disulfide-isomerase (Homo sapiens, UniProt P07237); experiment: inhibition of PDI-driven insulin aggregation – biochemical, turbidity, absorbance, cherry-picked samples, dose response (AID 602350); assay type: functional
T3 sequence (P07237 whole entry): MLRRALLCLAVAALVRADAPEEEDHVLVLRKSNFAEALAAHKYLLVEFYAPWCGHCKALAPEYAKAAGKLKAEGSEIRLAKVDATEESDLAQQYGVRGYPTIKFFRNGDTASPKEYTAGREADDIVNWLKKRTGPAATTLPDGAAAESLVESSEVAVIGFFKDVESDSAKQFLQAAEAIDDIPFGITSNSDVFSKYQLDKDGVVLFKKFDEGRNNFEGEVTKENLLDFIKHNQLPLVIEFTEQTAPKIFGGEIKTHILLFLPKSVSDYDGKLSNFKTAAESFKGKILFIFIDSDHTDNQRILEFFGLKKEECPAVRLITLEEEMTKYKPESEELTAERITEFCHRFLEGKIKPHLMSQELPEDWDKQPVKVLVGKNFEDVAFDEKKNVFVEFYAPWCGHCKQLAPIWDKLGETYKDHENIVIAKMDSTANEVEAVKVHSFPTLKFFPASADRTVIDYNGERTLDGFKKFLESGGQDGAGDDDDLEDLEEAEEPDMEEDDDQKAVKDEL

[12] = loss of viability in HeLa cells – cell-based, ATP luminescence, dry powder, cytotoxicity control, dose response (AID 652117); assay type: functional
[13] = target: T3, Protein disulfide-isomerase; experiment: inhibition of PDI-mediated insulin reduction – biochemical, turbidity, dry powder samples, set 2, confirmation (AID 652146)
INS1 [14] = experiment: beta-cell survival under cytokine stress – INS-1E, ATP luminescence, dry powder, dose response (AID 488844); assay type: functional, cell-based; conditions: Rattus norvegicus
[15] = suppression of NO production in INS-1E cells – cell-based, Griess absorbance, dry powder, set 3, dose response (AID 488870); assay type: functional; conditions: Rattus norvegicus
INS1 [16] = experiment: suppression of NO production in INS-1E cells – cell-based, Griess absorbance, dry powder, set 2, dose response (AID 488868); assay type: functional; conditions: Rattus norvegicus
[17] = target: Tyrosine-protein kinase Lck (Homo sapiens, UniProt P06239); assay type: functional;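 further: lck was assayed as one member of a kinase panel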
[18] = target: Mast/stem cell growth factor receptor Kit (Homo sapiens, UniProt P10721); assay type: functional;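 further: KIT entry within a kinase panel assay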
[19] = target: Tyrosine-protein kinase Lyn (Homo sapiens, UniProt P07948); assay type: functional;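 further: lyn as one member of a kinase panel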
[20] = target: Tyrosine-protein kinase Blk (Homo sapiens, UniProt P51451); assay type: functional;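 further: obtained as one member of a kinome-wide kinase assay panel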
[21] = target: Proto-oncogene tyrosine-protein kinase Src (Homo sapiens, UniProt P12931); assay type: functional;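 further: SRC entry within a kinome-wide kinase profiling panel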
[22] = target: T4, Receptor-type tyrosine-protein kinase FLT3 (Homo sapiens, UniProt P36888); assay type: functional;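 further: FLT3 was tested as one member of a kinome-wide kinase panel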
T4 sequence (P36888 whole entry): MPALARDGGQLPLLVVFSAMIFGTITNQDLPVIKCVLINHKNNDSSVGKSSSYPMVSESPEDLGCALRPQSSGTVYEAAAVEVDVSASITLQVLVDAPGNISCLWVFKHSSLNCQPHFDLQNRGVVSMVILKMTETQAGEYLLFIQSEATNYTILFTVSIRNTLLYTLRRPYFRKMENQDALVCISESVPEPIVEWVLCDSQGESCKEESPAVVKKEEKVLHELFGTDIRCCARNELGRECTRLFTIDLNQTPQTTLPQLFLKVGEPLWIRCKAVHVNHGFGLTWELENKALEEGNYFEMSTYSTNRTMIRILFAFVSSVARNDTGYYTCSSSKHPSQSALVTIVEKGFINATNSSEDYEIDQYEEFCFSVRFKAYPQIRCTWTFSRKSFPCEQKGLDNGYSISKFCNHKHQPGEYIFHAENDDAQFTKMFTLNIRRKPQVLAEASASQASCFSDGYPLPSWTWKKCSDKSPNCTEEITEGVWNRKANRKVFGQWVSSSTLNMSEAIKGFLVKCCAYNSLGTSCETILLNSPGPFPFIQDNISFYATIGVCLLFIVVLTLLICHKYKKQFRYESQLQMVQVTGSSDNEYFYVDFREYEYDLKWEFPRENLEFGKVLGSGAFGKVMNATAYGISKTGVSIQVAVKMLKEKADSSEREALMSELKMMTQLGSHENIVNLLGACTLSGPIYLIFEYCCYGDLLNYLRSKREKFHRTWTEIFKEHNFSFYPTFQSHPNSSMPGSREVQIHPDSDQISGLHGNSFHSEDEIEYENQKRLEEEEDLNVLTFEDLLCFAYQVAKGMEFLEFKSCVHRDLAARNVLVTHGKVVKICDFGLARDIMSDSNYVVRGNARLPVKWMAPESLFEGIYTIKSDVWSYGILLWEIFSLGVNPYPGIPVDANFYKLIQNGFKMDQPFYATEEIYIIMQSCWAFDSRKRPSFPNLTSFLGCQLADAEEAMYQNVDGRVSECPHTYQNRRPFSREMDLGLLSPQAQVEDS

[23] = target: Tyrosine-protein kinase ABL1 (Homo sapiens, UniProt P00519); assay type: functional
Sequence of Tyrosine-protein kinase ABL1 (P00519 whole entry): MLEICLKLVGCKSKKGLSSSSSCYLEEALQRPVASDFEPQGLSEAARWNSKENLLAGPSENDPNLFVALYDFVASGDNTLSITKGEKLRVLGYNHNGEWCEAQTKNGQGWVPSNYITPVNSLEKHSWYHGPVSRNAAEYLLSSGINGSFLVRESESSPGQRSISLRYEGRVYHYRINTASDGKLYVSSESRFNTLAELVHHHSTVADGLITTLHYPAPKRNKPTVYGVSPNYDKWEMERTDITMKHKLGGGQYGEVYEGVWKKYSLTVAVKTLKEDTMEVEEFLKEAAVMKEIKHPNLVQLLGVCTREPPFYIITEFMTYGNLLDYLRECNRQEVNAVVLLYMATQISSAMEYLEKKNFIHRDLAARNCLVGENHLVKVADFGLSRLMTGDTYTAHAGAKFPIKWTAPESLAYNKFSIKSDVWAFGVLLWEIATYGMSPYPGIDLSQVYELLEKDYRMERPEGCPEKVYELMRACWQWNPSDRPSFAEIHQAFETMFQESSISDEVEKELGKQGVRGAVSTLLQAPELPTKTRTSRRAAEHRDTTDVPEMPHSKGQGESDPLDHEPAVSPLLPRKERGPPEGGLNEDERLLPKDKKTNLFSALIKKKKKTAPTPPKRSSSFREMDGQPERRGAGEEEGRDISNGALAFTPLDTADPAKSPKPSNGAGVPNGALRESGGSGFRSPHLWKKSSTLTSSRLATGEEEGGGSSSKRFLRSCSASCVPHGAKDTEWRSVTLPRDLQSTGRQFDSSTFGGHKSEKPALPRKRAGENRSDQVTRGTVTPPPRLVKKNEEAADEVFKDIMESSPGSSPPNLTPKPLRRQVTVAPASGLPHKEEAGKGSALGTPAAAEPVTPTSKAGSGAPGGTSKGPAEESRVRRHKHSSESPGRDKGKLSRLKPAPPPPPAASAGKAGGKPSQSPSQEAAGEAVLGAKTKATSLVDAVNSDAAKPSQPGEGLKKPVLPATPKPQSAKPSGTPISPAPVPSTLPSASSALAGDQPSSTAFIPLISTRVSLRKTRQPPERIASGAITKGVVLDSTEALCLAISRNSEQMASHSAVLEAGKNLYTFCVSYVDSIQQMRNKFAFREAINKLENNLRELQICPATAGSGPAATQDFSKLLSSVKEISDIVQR

[24] = target: Vascular endothelial growth factor receptor 2 (Homo sapiens, UniProt P35968); assay type: functional
Sequence of Vascular endothelial growth factor receptor 2 (P35968 whole entry): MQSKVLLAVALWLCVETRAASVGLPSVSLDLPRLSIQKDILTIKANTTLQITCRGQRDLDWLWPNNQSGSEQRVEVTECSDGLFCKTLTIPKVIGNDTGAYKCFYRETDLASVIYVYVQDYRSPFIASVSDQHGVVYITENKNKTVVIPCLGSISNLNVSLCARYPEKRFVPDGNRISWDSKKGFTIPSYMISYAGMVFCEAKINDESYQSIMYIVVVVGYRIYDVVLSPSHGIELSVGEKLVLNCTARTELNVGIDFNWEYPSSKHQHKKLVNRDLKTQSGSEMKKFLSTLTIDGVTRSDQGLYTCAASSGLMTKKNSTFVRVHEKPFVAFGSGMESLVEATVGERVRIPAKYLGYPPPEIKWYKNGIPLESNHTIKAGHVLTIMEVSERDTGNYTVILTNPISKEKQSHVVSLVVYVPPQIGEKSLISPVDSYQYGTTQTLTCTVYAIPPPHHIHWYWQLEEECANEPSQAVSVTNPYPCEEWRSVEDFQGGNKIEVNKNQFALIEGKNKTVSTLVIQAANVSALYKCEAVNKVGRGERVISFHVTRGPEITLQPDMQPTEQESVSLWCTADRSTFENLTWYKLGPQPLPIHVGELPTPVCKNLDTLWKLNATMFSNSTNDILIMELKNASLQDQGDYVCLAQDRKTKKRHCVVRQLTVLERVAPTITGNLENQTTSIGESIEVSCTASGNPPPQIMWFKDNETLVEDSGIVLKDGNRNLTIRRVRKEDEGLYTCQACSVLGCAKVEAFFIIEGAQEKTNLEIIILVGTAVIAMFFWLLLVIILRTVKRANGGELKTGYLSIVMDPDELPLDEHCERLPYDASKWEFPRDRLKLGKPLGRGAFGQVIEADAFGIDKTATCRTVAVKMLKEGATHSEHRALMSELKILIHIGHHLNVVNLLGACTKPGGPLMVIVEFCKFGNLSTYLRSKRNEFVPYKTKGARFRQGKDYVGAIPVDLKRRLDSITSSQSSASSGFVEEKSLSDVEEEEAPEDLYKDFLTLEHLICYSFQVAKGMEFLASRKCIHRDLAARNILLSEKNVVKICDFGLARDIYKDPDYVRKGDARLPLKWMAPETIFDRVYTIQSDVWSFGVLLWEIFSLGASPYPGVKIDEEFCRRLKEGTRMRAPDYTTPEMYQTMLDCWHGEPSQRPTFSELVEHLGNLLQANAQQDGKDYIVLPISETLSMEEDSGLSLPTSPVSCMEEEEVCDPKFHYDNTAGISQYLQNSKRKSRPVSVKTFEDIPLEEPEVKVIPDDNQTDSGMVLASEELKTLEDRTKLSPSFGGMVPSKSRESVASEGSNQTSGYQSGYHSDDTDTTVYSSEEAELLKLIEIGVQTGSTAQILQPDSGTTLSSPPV

[25] = target: Vascular endothelial growth factor receptor 3 (Homo sapiens, UniProt P35916); assay type: functional;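 further: value from a kinome-wide profiling panel, with FLT4 as the panel member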
[26] = target: Tyrosine-protein kinase Fyn (Homo sapiens, UniProt P06241); assay type: functional
[27] = target: Vascular endothelial growth factor receptor 1 (Homo sapiens, UniProt P17948); assay type: functional;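 further: measured within a kinome-wide profiling panel, FLT1 as the panel member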
Sequence of Vascular endothelial growth factor receptor 1 (P17948 whole entry): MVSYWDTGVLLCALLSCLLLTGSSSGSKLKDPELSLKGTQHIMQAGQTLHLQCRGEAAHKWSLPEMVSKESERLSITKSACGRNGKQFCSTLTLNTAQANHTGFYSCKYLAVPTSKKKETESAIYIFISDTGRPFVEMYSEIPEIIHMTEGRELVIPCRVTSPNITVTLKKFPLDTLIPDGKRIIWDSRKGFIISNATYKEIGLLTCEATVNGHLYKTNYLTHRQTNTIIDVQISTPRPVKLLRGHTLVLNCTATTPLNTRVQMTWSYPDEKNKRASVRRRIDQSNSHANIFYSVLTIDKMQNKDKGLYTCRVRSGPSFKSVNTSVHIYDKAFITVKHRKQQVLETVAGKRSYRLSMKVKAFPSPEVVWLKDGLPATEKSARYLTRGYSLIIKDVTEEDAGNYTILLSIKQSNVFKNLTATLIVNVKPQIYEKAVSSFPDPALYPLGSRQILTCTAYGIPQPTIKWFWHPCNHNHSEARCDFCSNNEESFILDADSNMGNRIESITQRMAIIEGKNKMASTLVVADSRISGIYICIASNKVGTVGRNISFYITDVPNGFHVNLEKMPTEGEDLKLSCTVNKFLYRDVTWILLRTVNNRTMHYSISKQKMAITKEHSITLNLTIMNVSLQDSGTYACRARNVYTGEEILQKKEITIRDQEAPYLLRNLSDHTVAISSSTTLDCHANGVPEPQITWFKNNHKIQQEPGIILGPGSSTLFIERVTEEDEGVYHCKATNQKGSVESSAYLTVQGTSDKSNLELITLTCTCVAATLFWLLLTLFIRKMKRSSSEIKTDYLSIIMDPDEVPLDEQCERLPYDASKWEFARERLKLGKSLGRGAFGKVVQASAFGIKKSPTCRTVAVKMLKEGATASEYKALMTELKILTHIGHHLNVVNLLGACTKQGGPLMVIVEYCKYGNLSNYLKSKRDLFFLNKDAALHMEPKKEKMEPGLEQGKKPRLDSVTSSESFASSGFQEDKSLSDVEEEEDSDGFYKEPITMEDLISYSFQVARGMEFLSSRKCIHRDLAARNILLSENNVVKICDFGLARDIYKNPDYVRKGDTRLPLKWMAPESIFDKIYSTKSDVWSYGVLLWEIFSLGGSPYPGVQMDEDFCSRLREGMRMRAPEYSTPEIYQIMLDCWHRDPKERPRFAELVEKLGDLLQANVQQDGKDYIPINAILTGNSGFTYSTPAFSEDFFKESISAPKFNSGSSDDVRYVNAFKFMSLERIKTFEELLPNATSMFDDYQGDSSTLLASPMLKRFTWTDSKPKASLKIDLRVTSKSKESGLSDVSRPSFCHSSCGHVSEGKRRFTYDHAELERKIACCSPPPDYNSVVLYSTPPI

[28] = target: Macrophage colony-stimulating factor 1 receptor (Homo sapiens, UniProt P07333); assay type: functional;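 further: value comes from the Navigating the Kinome screening panel, CSF1R member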
[29] = target: Neuropeptides B/W receptor type 1 (Homo sapiens, UniProt P48145); experiment: human NPBW1 receptor blockade, IC50 – cell-based, fluorescence, dose response, set 5, late-stage follow-up (AID 588566); assay type: functional
[30] = target: Melanin-concentrating hormone receptor 1 (Homo sapiens, UniProt Q99705); experiment: Late-stage fluorescence-based counterscreen for antagonists of the G-protein coupled receptor 7 (GPR7): cell-based dose response assay to identify antagonists of the melanin-concentrating hormone receptor 1 (MCHR1) Set 5.; assay type: functional
Sequence of Melanin-concentrating hormone receptor 1 (Q99705 whole entry): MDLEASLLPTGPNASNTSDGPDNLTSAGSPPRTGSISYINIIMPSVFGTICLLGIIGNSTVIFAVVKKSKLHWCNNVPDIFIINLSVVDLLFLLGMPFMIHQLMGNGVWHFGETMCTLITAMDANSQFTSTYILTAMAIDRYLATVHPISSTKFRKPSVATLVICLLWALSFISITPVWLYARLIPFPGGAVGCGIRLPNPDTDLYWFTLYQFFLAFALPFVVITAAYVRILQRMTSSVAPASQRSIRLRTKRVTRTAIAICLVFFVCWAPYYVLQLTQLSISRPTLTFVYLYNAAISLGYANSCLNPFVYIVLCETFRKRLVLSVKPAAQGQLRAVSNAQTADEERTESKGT

## CC(=O)n1cc([C@H]2C=C(C(=O)Nc3ccccc3)O[C@@H](OCc3ccc(CO)cc3)C2)c2ccccc21
[1]
  IC50: > 20 µM (inactive)
[2]
  IC50: 65.6 µM (active)
[3]
  IC50: > 100 µM (inactive)
Prothrombin
  IC50: 80.6 µM (active)

## CC(C)C(=O)N1CCC2(CC1)Oc1ccc(F)cc1C(=O)C21CC(c2ccc(Cl)cc2)=NO1 (configuration not stated)
[4]
  EC50: 31.7 µM (active)
[5]
  EC50: 12.6 µM (active)

## CCOc1ccc(-c2cn3c([n+]2-c2ccccc2)CCCCC3)cc1
[6]
  EC50: 0.463 µM (active)
[7]
  EC50: 15.1 µM (active)
[8]
  IC50: > 80 µM (inactive)
INS1 [9]
  AC50: 0.998 µM (active)
[10]
  EC50: 6.83 µM (active)

## CCOC(=O)c1c(CN2CCN(CCO)CC2)n(-c2ccccc2)c2cc(Br)c(O)cc12
Vero
  IC50: 20.2 µM (active)
[11]
  AC50: 0.61 µM (active)
[12]
  AC50: > 52 µM (inactive)
[13]
  AC50: 2 µM (active)

## C[C@@H]1CN([C@H](C)CO)C(=O)c2cccc(NC(=O)Nc3cccc4ccccc34)c2O[C@H]1CN(C)S(=O)(=O)c1ccc(Cl)cc1
INS1 [14]
  AC50: 187 µM (active)
[15]
  AC50: 112 µM (active)
INS1 [16]
  AC50: 48.5 µM (active)

## COc1ccc(-c2ccc(NC(=O)Nc3ccc(OC(F)(F)F)cc3)cc2)c2c(N)noc12
[17]
  Ki: 0.0316 µM (active)
[18]
  Ki: 0.00158 µM (active)
[19]
  Ki: 0.0631 µM (active)
[20]
  Ki: 0.0158 µM (active)
[21]
  Ki: 0.126 µM (active)
[22]
  Ki: 0.00126 µM (active)
[23]
  Ki: 0.2 µM (active)
[24]
  Ki: 0.001 µM (active)
[25]
  Ki: 0.0126 µM (active)
[26]
  Ki: 0.0794 µM (active)
[27]
  Ki: 0.000631 µM (active)
[28]
  Ki: 0.00501 µM (active)

## COc1ccc(Oc2c(F)cnn(-c3cccc(C)c3)c2=O)cc1
[29]
  IC50: 4.04 µM (active)
[30]
  IC50: 7.64 µM (active)
